Results: patent US20110008347A1, “CANCER-RELATED PROTEIN KINASES” (Agency for Science ,Technology and Research, priority 2006, published 2011)

Experiments:
[1] = system: HuH7; experiment: Viability of HCC cell lines (HuH7) exposed to FGFR inhibitor; assay type: cell-based, human
[2] = system: HEK293; experiment: Viability of non-cancerous cell line HEK293 exposed to FGFR inhibitor; assay type: cell-based; conditions: non-cancerous cell line HEK293, data not shown
[3] = system: HuH7 cells; experiment: AFP production in HuH7 cells after exposure to FGFR inhibitor; assay type: cell-based, human; conditions: HuH7, 0, 1, 5 and 10 μM (FIG. 15)
Method: (§1) Supernatants from the respective FGF19 stimulation and siRNA experiments were subjected to AFP ELISA assay using the DELFIA hAFP kit (Perkin Elmer, Boston, Mass.), performed according to manufacturer's protocol. The readout was converted to concentration (ng/mL) using the standard curve derived from the solutions provided in the kit. AFP production by the cells was subsequently normalized to the number of cells in each well. The cell number was determined by ATP bioluminescence Cell-Titer Glo assay (Promega, Madison, Wis.) using protocol as described by the manufacturer.

[4] = target: T1, FGFR4 (Homo sapiens, UniProt P22455); experiment: FGF19 ligand stimulation, AFP ELISA, HepG2; assay type: cell-based; design: endogenous in cells; conditions: HepG2, 50 and 100 ng/ml FGF19 (FIG. 12)
Method: (§2) HepG2 or HuH7 cells were seeded into 96-well plates and allowed to attach overnight. They were serum-starved for 24 h before addition of heparin. Two hours later, FGF19 (R&D Systems, Minneapolis, Minn., 50-100 ng/mL final concentration) was administered. After 8 hours, aliquots of the supernatant were harvested for AFP ELISA assay as described below. Similar FGF19 stimulations were performed in 10 cm dishes for immunoblot detection of phospho-FRS2α.
as §1

[5] = target: T1, FGFR4; experiment: FGF19 ligand stimulation, AFP ELISA, HuH7; assay type: cell-based; design: stimulation of FGFR4 in the HCC cell line HuH7 using 50 and 100 ng/ml of the specific ligand FGF19; endogenous in cells; host or cells: HuH7
Method: as §2, §1

T1 sequence (P22455 22-802): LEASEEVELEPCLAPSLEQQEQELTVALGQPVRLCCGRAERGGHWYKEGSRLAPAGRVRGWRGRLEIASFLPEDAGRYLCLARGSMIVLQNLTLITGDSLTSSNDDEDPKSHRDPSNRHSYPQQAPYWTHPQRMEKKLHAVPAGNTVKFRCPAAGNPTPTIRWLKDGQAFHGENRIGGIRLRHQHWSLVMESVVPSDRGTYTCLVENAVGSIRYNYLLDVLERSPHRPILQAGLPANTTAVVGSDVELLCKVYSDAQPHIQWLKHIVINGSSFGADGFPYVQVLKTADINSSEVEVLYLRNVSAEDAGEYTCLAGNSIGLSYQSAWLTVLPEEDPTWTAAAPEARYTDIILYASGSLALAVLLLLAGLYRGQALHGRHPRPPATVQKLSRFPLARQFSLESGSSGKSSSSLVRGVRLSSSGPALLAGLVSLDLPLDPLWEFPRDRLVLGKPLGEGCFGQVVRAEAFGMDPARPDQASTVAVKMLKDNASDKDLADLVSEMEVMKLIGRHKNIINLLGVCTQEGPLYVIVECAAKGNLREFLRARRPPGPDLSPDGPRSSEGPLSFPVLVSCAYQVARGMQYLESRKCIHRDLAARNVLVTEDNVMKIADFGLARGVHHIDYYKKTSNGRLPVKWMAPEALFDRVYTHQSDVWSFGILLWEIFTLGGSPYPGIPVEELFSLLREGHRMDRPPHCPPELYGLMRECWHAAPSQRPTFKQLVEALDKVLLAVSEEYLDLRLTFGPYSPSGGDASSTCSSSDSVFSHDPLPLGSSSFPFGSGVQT

| Compound | anti-proliferative effect ([1]; HCC cell lines vs. non-cancerous cell line HEK293) | anti-proliferative effect (viability) ([1]; HuH7 (FIG. 16)) | LD50 [2] [µM] | AFP production [3] | AFP production [4] | AFP production ([5]; HCC cell lines (FIG. 11, FIG. 12)) | AFP production ([5]; HuH7, 50 and 100 ng/ml FGF19 (FIG. 11)) |
| --- | --- | --- | --- | --- | --- | --- | --- |
| CCN(CC)CCCCNc1ncc2cc(-c3cc(OC)cc(OC)c3)c(NC(=O)NC(C)(C)C)nc2n1 [PD173074] | exquisite anti-proliferative effect | exquisite anti-proliferative effect | > 50 | blocks AFP production | – | – | – |
| FGF19: specific ligand used for stimulation of FGFR4 (R&D Systems) | – | – | – | – | elevated AFP production | elevated AFP production | elevated AFP production |
